Source: paper PMC9921851, “Synthesis and Preclinical Evaluation of Three Novel ^68Ga-Labeled Bispecific PSMA/FAP-Targeting Tracers for Prostate Cancer Imaging” (Molecules, 2023)
Where two headings read alike, the source gives them in different places.

How the values were obtained:
[1] = target: T1, PSMA (Homo sapiens, UniProt Q04609); test: In vitro PSMA competition binding assay ([^18F]DCFPyL displacement on LNCaP cells); conditions: radioligand [^18F]DCFPyL, n = 3
T1 construct: endogenous in cells; host or cells: LNCaP cells (ATCC via Cedarlane)
Protocol: The binding affinities of Ga-AV01017, Ga-AV01030, Ga-AV01038, Ga-HTK03041, and Ga-FAPI-04 to PSMA were measured by a cell-based binding assay using PSMA-expressing LNCaP prostate cancer cells. The nonradioactive Ga-complexed standards, except Ga-FAPI-04, inhibited the binding of [^18F]DCFPyL to LNCaP cells in a dose-dependent manner (Figure 3A).
The PSMA binding assays were conducted following previously published procedures using LNCaP cells and [^18F]DCFPyL as the radioligand [34, 42, 43]. Data analyses of IC50 were performed using the nonlinear regression algorithm of GraphPad Prism 7 (San Diego, CA, USA) software.

[2] = system: FAP-expressing HEK293T:hFAP tumor xenografts; test: Ex vivo biodistribution in HEK293T:hFAP tumor-bearing mice; conditions: 1 h post injection, mean ± SD, n = 4
Protocol: Biodistribution studies were also conducted at 1 h post injection with [^68Ga]Ga-AV01017, [^68Ga]Ga-AV01030, [^68Ga]Ga-AV01038, [^68Ga]Ga-HTK03041, and [^68Ga]Ga-FAPI-04 in HEK293T:hFAP tumor-bearing mice (Figure 6 and Table S5, Supplementary Materials). Tumor uptake values for [^68Ga]Ga-AV01017, [^68Ga]Ga-AV01030, [^68Ga]Ga-AV01038, [^68Ga]Ga-HTK03041, and [^68Ga]Ga-FAPI-04 were 2.99 ± 0.37, 3.69 ± 0.81, 3.64 ± 0.83, 0.62 ± 0.19, and 12.5 ± 2.00 %ID/g, respectively. There was a very low tumor uptake in mice injected with [^68Ga]Ga-HTK03041, showing very minimal FAP expression in this tumor model. The uptake levels of these tracers on the major organs and tissues are consistent with the trends observed in the LNCaP tumor-baring mice (Figure 5 and Supplemental Table S4).
(§1) Imaging and biodistribution studies were performed using male NOD.Cg-Rag1tm1Mom Il2rgtm1Wjl/SzJ (NRG) mice following previously published procedures. The experiments were conducted according to the guidelines established by the Canadian Council on Animal Care and approved by Animal Ethics Committee of the University of British Columbia. The mice were briefly sedated by inhalation of 2.5% isoflurane in oxygen, and 100 µL LNCaP (2 × 10^5 cells) or HEK293T:hFAP (8.5 × 10^6 cells) cells were inoculated subcutaneously behind the left shoulder. When the tumor grew to 5–8 mm in diameter over 3–4 weeks and 4–5 weeks for HEK293T:hFAP and LNCaP tumors, respectively, the mice were used for PET/CT imaging and biodistribution studies.
(§2) For biodistribution studies, the mice were injected with the radiotracer (~2–4 MBq) as described above. At 1 h post injection, the mice were euthanized by CO2 inhalation. Blood was withdrawn by cardiac puncture, and organs/tissues of interest were collected, weighed, and counted using a Perkin Elmer (Waltham, MA, USA) Wizard2 2480 automatic gamma counter.

[3] = system: PSMA-expressing LNCaP tumor xenografts; test: Ex vivo biodistribution in LNCaP tumor-bearing mice; conditions: LNCaP tumor-bearing mice, 1 h post injection, mean ± SD, n = 4
Protocol: Biodistribution studies were conducted at 1 h post injection with ^68Ga-labeled AV01017, AV01030, AV01038, HTK03041, and FAPI-04 in LNCaP tumor-bearing mice (Figure 5 and Table S4, Supplementary Materials). The results were consistent with the observation from their PET images. Tumor uptake values for [^68Ga]Ga-AV01017, [^68Ga]Ga-AV01030, [^68Ga]Ga-AV01038, [^68Ga]Ga-HTK03041, and [^68Ga]Ga-FAPI-04 were 4.38 ± 0.55, 5.17 ± 0.51, 4.25 ± 0.86, 23.1 ± 6.11, and 3.15 ± 1.43 %ID/g, respectively. […] Although not statistically significant, the bispecific tracers with a longer linker tend to have a higher blood uptake value (9.24 ± 1.55 %ID/g for [^68Ga]Ga-AV01017; 7.07 ± 0.31%ID/g for [^68Ga]Ga-AV01038; 5.75 ± 0.59 %ID/g for [^68Ga]Ga-AV01030) and a lower tumor-to-blood ratio (0.48 ± 0.11 for [^68Ga]Ga-AV01017; 0.60 ± 0.13 for [^68Ga]Ga-AV01038; 0.89 ± 0.03 for [^68Ga]Ga-AV01030).
as §1, §2

[4] = system: PSMA-expressing LNCaP tumor xenografts; set-up: method as in earlier work; conditions: LNCaP tumor-bearing mice, 1 h post injection, reported previously, ref 4 (supplement); cited from earlier work

T1 sequence (Q04609 whole entry): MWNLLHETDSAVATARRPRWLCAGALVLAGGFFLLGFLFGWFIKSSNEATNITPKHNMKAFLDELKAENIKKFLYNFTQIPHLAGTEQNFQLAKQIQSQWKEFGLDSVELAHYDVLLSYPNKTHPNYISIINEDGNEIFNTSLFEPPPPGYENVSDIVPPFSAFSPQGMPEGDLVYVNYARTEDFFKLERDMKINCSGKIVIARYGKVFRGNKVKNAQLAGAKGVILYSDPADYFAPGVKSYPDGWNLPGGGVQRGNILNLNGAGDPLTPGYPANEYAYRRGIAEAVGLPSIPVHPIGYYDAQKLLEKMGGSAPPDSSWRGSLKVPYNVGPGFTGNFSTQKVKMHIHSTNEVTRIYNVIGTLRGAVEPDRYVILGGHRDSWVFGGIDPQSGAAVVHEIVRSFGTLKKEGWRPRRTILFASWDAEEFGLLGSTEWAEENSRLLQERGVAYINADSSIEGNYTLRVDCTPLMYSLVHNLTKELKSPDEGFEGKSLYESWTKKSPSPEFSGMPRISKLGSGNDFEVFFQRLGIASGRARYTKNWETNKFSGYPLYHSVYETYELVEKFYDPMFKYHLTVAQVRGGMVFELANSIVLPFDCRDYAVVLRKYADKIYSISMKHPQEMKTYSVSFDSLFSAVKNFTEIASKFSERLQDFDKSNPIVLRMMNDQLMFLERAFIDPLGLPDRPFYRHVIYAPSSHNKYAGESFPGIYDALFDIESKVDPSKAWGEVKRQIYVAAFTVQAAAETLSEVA

N#C[C@@H]1CC(F)(F)CN1C(=O)CNC(=O)c1ccnc2ccc(OCCCN3CCN(C(=O)CN4CCN(CC(=O)[O-])CCN(CC(=O)[O-])CCN(CC(=O)[O-])CC4)CC3)cc12.[Ga+3] [Ga-FAPI-04, reference compound]
IC50 [1]: > 1000 nM

N#C[C@@H]1CC(F)(F)CN1C(=O)CNC(=O)c1ccnc2ccc(OCCCN3CCN(C(=O)CN4CCN(CC(=O)[O-])CCN(CC(=O)[O-])CCN(CC(=O)[O-])CC4)CC3)cc12.[68Ga+3] [[^68Ga]Ga-FAPI-04, reference compound]
Adrenal glands uptake [2]: 1.07 ± 0.32 %ID/g
Blood uptake [2]: 1.07 ± 0.08 %ID/g
Bone uptake [2]: 3.36 ± 1.09 %ID/g
Brain uptake [2]: 0.04 ± 0.00 %ID/g
Fat uptake [2]: 0.10 ± 0.01 %ID/g
HEK293T:hFAP tumor uptake [2]: 12.5 ± 2.00 %ID/g
Heart uptake [2]: 0.34 ± 0.04 %ID/g
Kidneys uptake [2]: 1.83 ± 0.16 %ID/g
Liver uptake [2]: 0.36 ± 0.02 %ID/g
Lungs uptake [2]: 0.74 ± 0.11 %ID/g
Muscle uptake [2]: 0.67 ± 0.05 %ID/g
Pancreas uptake [2]: 0.37 ± 0.05 %ID/g
Seminal vesicle uptake [2]: 0.15 ± 0.04 %ID/g
Small Intestine uptake [2]: 0.36 ± 0.08 %ID/g
Spleen uptake [2]: 0.56 ± 0.11 %ID/g
Stomach uptake [2]: 0.07 ± 0.01 %ID/g
Testes uptake [2]: 0.28 ± 0.04 %ID/g
Tumor/blood uptake ratio [2]: 11.7 ± 2.04
Tumor/bone uptake ratio [2]: 3.93 ± 1.16
Tumor/kidney uptake ratio [2]: 6.85 ± 1.33
Tumor/muscle uptake ratio [2]: 18.8 ± 4.09
Adrenal glands uptake [3]: 2.16 ± 1.08 %ID/g
Blood uptake [3]: 2.16 ± 0.33 %ID/g
Bone uptake [3]: 4.27 ± 0.74 %ID/g
Brain uptake [3]: 0.06 ± 0.00 %ID/g
Fat uptake [3]: 0.55 ± 0.47 %ID/g
Heart uptake [3]: 0.70 ± 0.04 %ID/g
Kidneys uptake [3]: 2.36 ± 0.38 %ID/g
LNCaP tumor uptake [3]: 3.15 ± 1.43 %ID/g
Lacrimal glands uptake [3]: 0.06 ± 0.07 %ID/g
Large Intestine uptake [3]: 0.73 ± 0.09 %ID/g
Liver uptake [3]: 0.76 ± 0.08 %ID/g
Lungs uptake [3]: 1.23 ± 0.07 %ID/g
Muscle uptake [3]: 1.04 ± 0.20 %ID/g
Pancreas uptake [3]: 0.99 ± 0.25 %ID/g
Salivary glands uptake [3]: 1.36 ± 0.92 %ID/g
Seminal vesicle uptake [3]: 3.72 ± 5.09 %ID/g
Small Intestine uptake [3]: 0.74 ± 0.12 %ID/g
Spleen uptake [3]: 0.67 ± 0.11 %ID/g
Stomach uptake [3]: 0.26 ± 0.04 %ID/g
Testes uptake [3]: 0.42 ± 0.04 %ID/g
Thyroid uptake [3]: 3.62 ± 1.01 %ID/g
Tumor/blood uptake ratio [3]: 1.04 ± 0.42
Tumor/bone uptake ratio [3]: 0.51 ± 0.28
Tumor/kidney uptake ratio [3]: 0.90 ± 0.28
Tumor/muscle uptake ratio [3]: 2.30 ± 0.79

O=C([O-])CN1CCN(CC(=O)[O-])CCN(CC(=O)NC[C@H]2CC[C@H](C(=O)N[C@@H](Cc3c4ccccc4cc4ccccc34)C(=O)NCCCC[C@H](NC(=O)N[C@@H](CCC(=O)O)C(=O)O)C(=O)O)CC2)CCN(CC(=O)[O-])CC1.[68Ga+3] [[^68Ga]Ga-HTK03041, reference compound]
Adrenal glands uptake [2]: 4.18 ± 0.48 %ID/g
Blood uptake [2]: 0.71 ± 0.07 %ID/g
Bone uptake [2]: 0.42 ± 0.11 %ID/g
Brain uptake [2]: 0.03 ± 0.00 %ID/g
Fat uptake [2]: 0.55 ± 0.12 %ID/g
HEK293T:hFAP tumor uptake [2]: 0.62 ± 0.19 %ID/g
Heart uptake [2]: 0.98 ± 0.07 %ID/g
Kidneys uptake [2]: 68.4 ± 19.2 %ID/g
Lacrimal gland uptake [2]: 0.25 ± 0.33 %ID/g
Large Intestine uptake [2]: 0.43 ± 0.04 %ID/g
Liver uptake [2]: 0.72 ± 0.06 %ID/g
Lungs uptake [2]: 2.43 ± 0.08 %ID/g
Muscle uptake [2]: 0.47 ± 0.03 %ID/g
Pancreas uptake [2]: 0.71 ± 0.07 %ID/g
Salivary glands uptake [2]: 2.29 ± 0.16 %ID/g
Seminal vesicle uptake [2]: 0.32 ± 0.03 %ID/g
Small Intestine uptake [2]: 0.71 ± 0.01 %ID/g
Spleen uptake [2]: 8.09 ± 2.37 %ID/g
Stomach uptake [2]: 0.22 ± 0.04 %ID/g
Testes uptake [2]: 0.60 ± 0.41 %ID/g
Thyroid uptake [2]: 1.38 ± 0.10 %ID/g
Tumor/blood uptake ratio [2]: 0.83 ± 0.54
Tumor/bone uptake ratio [2]: 1.39 ± 0.58
Tumor/kidney uptake ratio [2]: 0.01 ± 0.01
Tumor/muscle uptake ratio [2]: 1.22 ± 0.73
Blood uptake [4]: 1.43 ± 0.30 %ID/g
Bone uptake [4]: 1.29 ± 0.45 %ID/g
Brain uptake [4]: 0.10 ± 0.05 %ID/g
Fat uptake [4]: 2.06 ± 0.59 %ID/g
Heart uptake [4]: 1.82 ± 0.62 %ID/g
Kidneys uptake [4]: 170 ± 26.4 %ID/g
LNCaP tumor uptake [4]: 23.1 ± 6.11 %ID/g
Liver uptake [4]: 1.38 ± 0.25 %ID/g
Muscle uptake [4]: 0.75 ± 0.09 %ID/g
Pancreas uptake [4]: 1.47 ± 0.16 %ID/g
Small Intestine uptake [4]: 1.14 ± 0.18 %ID/g
Spleen uptake [4]: 8.95 ± 3.22 %ID/g
Stomach uptake [4]: 0.41 ± 0.11 %ID/g
Testes uptake [4]: 1.34 ± 0.22 %ID/g
Thyroid uptake [4]: 2.48 ± 0.44 %ID/g
Tumor/blood uptake ratio [4]: 17.3 ± 7.24
Tumor/bone uptake ratio [4]: 20.1 ± 9.48
Tumor/kidney uptake ratio [4]: 0.14 ± 0.04
Tumor/muscle uptake ratio [4]: 31.6 ± 12.1
